Consider one compound from publication PMC8025909, “Repurposing of Sitagliptin- Melittin Optimized Nanoformula against SARS-CoV-2; Antiviral Screening and Molecular Docking Studies” (Pharmaceutics, 2021).

Structures are written as SMILES.

For the assay, the target named is T1, SARS-CoV-2 3CL Protease (3C-like protease, Mpro, 3CLpro) (Severe acute respiratory syndrome coronavirus 2, UniProt P0DTD1).
T1 construct: gene rep; full-length mature nsp5 a.a; supplier apparently BPS Bioscience
Kind of assay: biochemical.

For the compound `N[C@@H](CC(=O)N1CCn2c(nnc2C(F)(F)F)C1)Cc1cc(F)c(F)cc1F` [sitagliptin], it took 6.914 ± 0.034 µM to reach half-maximal inhibition (IC50).
